# Experiments:
# E. coli 5W-7 = assay: MIC by doubling dilution, colistin sulfate-susceptible E. coli 5W-7; type: cell-based, Escherichia coli; conditions: for In vitro minimum inhibitory concentration (MIC) of the substance alone: E. coli 5W-7, colistin sulfate-susceptible, derivatives as hydrochlorides; for In vitro MIC of colistin sulfate in the presence of the substituted benzylideneguanidine derivative: E. coli 5W-7, culture comprised 20.0 ppm of the derivative (hydrochloride), colistin sulfate serially diluted
# E. coli 4D-6 = assay: MIC by doubling dilution, colistin sulfate-resistant E. coli 4D-6; conditions: for In vitro minimum inhibitory concentration (MIC) of the substance alone: E. coli 4D-6, colistin sulfate-resistant, derivatives as hydrochlorides; for In vitro MIC of colistin sulfate in the presence of the substituted benzylideneguanidine derivative: E. coli 4D-6, resistant, culture comprised 20.0 ppm of the derivative (hydrochloride)
# Description: (§1) In vitro minimum inhibitory concentrations of colistin sulfate against the strains where the cultures respectively comprised 20.0 ppm of the substituted benzylideneguanidine derivatives were also measured.
# E. coli 3B-24 = assay: MIC by doubling dilution, colistin sulfate-susceptible E. coli 3B-24; type: cell-based, Escherichia coli; conditions: for In vitro minimum inhibitory concentration (MIC) of the substance alone: E. coli 3B-24, colistin sulfate-susceptible, derivatives as hydrochlorides; for In vitro MIC of colistin sulfate in the presence of the substituted benzylideneguanidine derivative: E. coli 3B-24, culture comprised 20.0 ppm of the derivative (hydrochloride), colistin sulfate serially diluted
# E. coli 5F-1 = assay: MIC by doubling dilution, colistin sulfate-resistant E. coli 5F-1; conditions: for In vitro minimum inhibitory concentration (MIC) of the substance alone: E. coli 5F-1, colistin sulfate-resistant, derivatives as hydrochlorides; for In vitro MIC of colistin sulfate in the presence of the substituted benzylideneguanidine derivative: E. coli 5F-1, resistant, culture comprised 20.0 ppm of the derivative (hydrochloride)
# Description: as §1
# E. coli 3H-4 = assay: MIC by doubling dilution, colistin sulfate-resistant E. coli 3H-4; conditions: for In vitro minimum inhibitory concentration (MIC) of the substance alone: E. coli 3H-4, colistin sulfate-resistant, derivatives as hydrochlorides; for In vitro MIC of colistin sulfate in the presence of the substituted benzylideneguanidine derivative: E. coli 3H-4, resistant, culture comprised 20.0 ppm of the derivative (hydrochloride)
# Description: as §1
# E. coli 3Y-9 = assay: MIC by doubling dilution, colistin sulfate-susceptible E. coli 3Y-9; type: cell-based, Escherichia coli; conditions: for In vitro minimum inhibitory concentration (MIC) of the substance alone: E. coli 3Y-9, colistin sulfate-susceptible, derivatives as hydrochlorides; for In vitro MIC of colistin sulfate in the presence of the substituted benzylideneguanidine derivative: E. coli 3Y-9, culture comprised 20.0 ppm of the derivative (hydrochloride), colistin sulfate serially diluted
# E. coli 2S-19 = assay: MIC by doubling dilution, colistin sulfate-susceptible E. coli 2S-19; type: cell-based, Escherichia coli; conditions: for In vitro minimum inhibitory concentration (MIC) of the substance alone: E. coli 2S-19, colistin sulfate-susceptible, derivatives as hydrochlorides; for In vitro MIC of colistin sulfate in the presence of the substituted benzylideneguanidine derivative: E. coli 2S-19, culture comprised 20.0 ppm of the derivative (hydrochloride), colistin sulfate serially diluted
# E. coli 2G-7 = assay: MIC by doubling dilution, colistin sulfate-resistant E. coli 2G-7; conditions: for In vitro minimum inhibitory concentration (MIC) of the substance alone: E. coli 2G-7, colistin sulfate-resistant, derivatives as hydrochlorides; for In vitro MIC of colistin sulfate in the presence of the substituted benzylideneguanidine derivative: E. coli 2G-7, resistant, culture comprised 20.0 ppm of the derivative (hydrochloride)
# Description: as §1
Compound,In vitro minimum inhibitory concentration (MIC) of the substance alone (E. coli 5W-7) [ppm],In vitro MIC of colistin sulfate in the presence of the substituted benzylideneguanidine derivative (E. coli 5W-7) [ppm],In vitro minimum inhibitory concentration (MIC) of the substance alone (E. coli 4D-6) [ppm],In vitro MIC of colistin sulfate in the presence of the substituted benzylideneguanidine derivative (E. coli 4D-6) [ppm],In vitro minimum inhibitory concentration (MIC) of the substance alone (E. coli 3B-24) [ppm],In vitro MIC of colistin sulfate in the presence of the substituted benzylideneguanidine derivative (E. coli 3B-24) [ppm],In vitro minimum inhibitory concentration (MIC) of the substance alone (E. coli 5F-1) [ppm],In vitro MIC of colistin sulfate in the presence of the substituted benzylideneguanidine derivative (E. coli 5F-1) [ppm],In vitro minimum inhibitory concentration (MIC) of the substance alone (E. coli 3H-4) [ppm],In vitro MIC of colistin sulfate in the presence of the substituted benzylideneguanidine derivative (E. coli 3H-4) [ppm],In vitro minimum inhibitory concentration (MIC) of the substance alone (E. coli 3Y-9) [ppm],In vitro MIC of colistin sulfate in the presence of the substituted benzylideneguanidine derivative (E. coli 3Y-9) [ppm],In vitro minimum inhibitory concentration (MIC) of the substance alone (E. coli 2S-19) [ppm],In vitro MIC of colistin sulfate in the presence of the substituted benzylideneguanidine derivative (E. coli 2S-19) [ppm],In vitro minimum inhibitory concentration (MIC) of the substance alone (E. coli 2G-7) [ppm],In vitro MIC of colistin sulfate in the presence of the substituted benzylideneguanidine derivative (E. coli 2G-7) [ppm]
N#Cc1ccc(C=NN=C(N)NN=Cc2ccc(C#N)cc2)cc1 [Compound 13],>800,0.50,>800,16,>800,0.50,>800,8,>800,4,>800,1.00,>800,1.00,>800,4
N=C(NN=Cc1ccc([N+](=O)[O-])cc1)NN=Cc1ccc([N+](=O)[O-])cc1 [Compound 15],>800,0.50,>800,16,>800,1.00,>800,8,>800,4,>800,1.00,>800,1.00,>800,4
CC(C)c1ccc(C=NNC(=N)NN=Cc2ccc(C(C)C)cc2)cc1 [Compound 11],>800,0.50,>800,64,>800,2.00,>800,16,>800,16,>800,1.00,>800,1.00,>800,16
CCOc1ccc(C=NN=C(N)NN=Cc2ccc(OCC)cc2)cc1 [Compound 2],>800,1.00,>800,8.0,>800,2.00,>800,4.0,>800,2.0,>800,2.00,>800,2.00,>800,2.0
COC(=O)c1ccc(C=NN=C(N)NN=Cc2ccc(C(=O)OC)cc2)cc1 [Compound 12],>800,0.50,>800,16,>800,1.00,>800,8,>800,4,>800,1.00,>800,1.00,>800,4
Cc1ccc(C=NN=C(N)NN=Cc2ccc(C)cc2)cc1 [Compound 10],>800,0.50,>800,16,>800,1.00,>800,8,>800,4,>800,1.00,>800,1.00,>800,4
N=C(NN=Cc1ccc(OC(F)(F)F)cc1)NN=Cc1ccc(OC(F)(F)F)cc1 [Compound 16],>800,0.50,>800,32,>800,1.00,>800,16,>800,8,>800,2.00,>800,1.00,>800,8

# Source: patent US11116735B2, “Use of substituted benzylideneguanidine derivatives as synergists for polymyxin antibiotics” (GUANGZHOU INSIGHTER BIOTECHNOLOGY CO., LTD., priority 2015, dated 2021)
